Here are results for 5 compounds from patent US3974140A, “Ureidoacetamido-penicillins” (Bayer Aktiengesellschaft, priority 1970, dated 1976).

Values joined by “and” are separate entries in the source; they are usually repeats but may differ in a detail not shown here. Equal entries are not always repeated.

Holding throughout (assay): MIC, liquid medium test tube series dilution test
The test system of one test is E. coli 14. In kind it is cell-based. As to conditions: E. coli 14, 24 hours, 37°C. An outline of the steps: (§1)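 Broth tube serial dilution in complete nutrient medium; tubes read after 24 hours' incubation at 37°C. MIC taken as the concentration in the non-turbid tube of the dilution series, expressed in units/ml.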
The test system of the next test is E. coli 183/58. It counts as cell-based. As to conditions: E. coli 183/58, 24 hours, 37°C. The essentials:
as §1

For another test, the system named is E. coli A 261. It counts as cell-based. As to conditions: E. coli A 261, 24 hours, 37°C. The essentials: as §1
The subject of the next test is E. coli C 165. In kind it is cell-based. As to conditions: E. coli C 165, 24 hours, 37°C. The essentials: as §1
The subject of a further test is Klebsiella 63. In kind it is cell-based. The following applies: Klebsiella 63, 24 hours, 37°C. The essentials: as §1
For a further test, the system named is Klebsiella K 10. It counts as cell-based. As to conditions: Klebsiella K 10, 24 hours, 37°C. The essentials: as §1
Test [1] has as its system Streptoc. faec. ATCC 9790. In kind it is cell-based. The following applies: Strep. faec. (Enterococcus) ATCC 9790, 24 hours, 37°C. An outline of the steps: as §1
The subject of another test is Proteus vulg. 1017. It counts as cell-based, Proteus vulgaris. As to conditions: Proteus vulg. 1017, 24 hours, 37°C. The essentials:
as §1

The test system of another test is Proteus vulg. 3400. In kind it is cell-based, Proteus vulgaris. The following applies: Proteus vulg. 3400, 24 hours, 37°C. An outline of the steps: as §1
A further test has as its system Psdm. aerug. Bonn. In kind it is cell-based, Pseudomonas aerug. The following applies: 24 hours, 37°C. The essentials: as §1
A further test relates to Psdm. aerug. Walter. In kind it is cell-based, Pseudomonas aerug. The following applies: 24 hours, 37°C. The essentials: as §1
Another test concerns Staph. aureus 133. It counts as cell-based, Staphylococcus aureus. The following applies: Staph. aureus 133, 24 hours, 37°C. The essentials: as §1

Turning to `CN(C(=O)N[C@@H](C(=O)N[C@@H]1C(=O)N2[C@@H]1SC(C)(C)[C@@H]2C(=O)O)c1ccccc1)C(=O)c1cccs1` [Example 37, Sodium D(-)-α-[3-(2-thenoyl)-3-methyl-ureido]-benzylpenicillin], the MIC is recorded as under 0.8 units/ml with E. coli 14; 0.8-4 units/ml in the test on E. coli 183/58; over 500 units/ml in the test on E. coli A 261; 0.8-4 units/ml with E. coli C 165; 4-20 units/ml against Klebsiella 63; 20-100 units/ml in the test on Klebsiella K 10. The MIC was 20-100 units/ml in test [1]; 4-20 units/ml against Proteus vulg. 1017; 4-20 units/ml against Proteus vulg. 3400; 4-20 units/ml with Psdm. aerug. Bonn; 4-20 units/ml in the test on Psdm. aerug. Walter; under 0.8 units/ml against Staph. aureus 133.
In the case of `Cc1noc(C)c1C(=O)N(C)C(=O)N[C@@H](C(=O)N[C@@H]1C(=O)N2[C@@H]1SC(C)(C)[C@@H]2C(=O)O)c1ccccc1` [Example 38], the MIC is 0.8-4 units/ml against E. coli 14; 4-20 units/ml in the test on E. coli 183/58; over 500 units/ml against E. coli A 261; 4-20 units/ml in the test with E. coli C 165; 20-100 units/ml against Klebsiella 63; 20-100 units/ml in the test with Klebsiella K 10. The MIC is recorded as 100-500 units/ml in [1]; 20-100 units/ml against Proteus vulg. 1017; 20-100 units/ml with Proteus vulg. 3400; 20-100 units/ml in the test on Psdm. aerug. Bonn; 20-100 units/ml against Psdm. aerug. Walter; under 0.8 units/ml against Staph. aureus 133.
As to `Cc1ccc(C(NC(=O)N(C)C(=O)c2ccccc2F)C(=O)N[C@@H]2C(=O)N3[C@@H]2SC(C)(C)[C@@H]3C(=O)O)cc1` (stereo partly drawn) [Example 44, Sodium α-(3-o-fluorobenzoyl-3-methyl-ureido)-α-p-tolyl-methylpenicillin], the MIC in the test on E. coli 14 was 6.25 units/ml; against E. coli 183/58, 25 units/ml; with E. coli A 261, 400 units/ml; with E. coli C 165 it was 25 units/ml; in the test on Klebsiella 63, 50 units/ml; with Klebsiella K 10, 50 units/ml. The MIC amounted to 100 units/ml in test [1]; 50 units/ml with Proteus vulg. 1017; 25 units/ml against Proteus vulg. 3400; 50 units/ml in the test with Psdm. aerug. Bonn; 50 units/ml against Psdm. aerug. Walter; 1.6 units/ml in the test on Staph. aureus 133.
Consider `CN(C(=O)CCC(F)(F)F)C(=O)N[C@@H](C(=O)N[C@@H]1C(=O)N2[C@@H]1SC(C)(C)[C@@H]2C(=O)O)c1ccccc1` [Example 69, Sodium D(-)-α-(3-γ-trifluorobutyryl-3-methyl-ureido)-benzylpenicillin], for which the MIC in the test on E. coli 14 is 1.56 units/ml; in the test with E. coli 183/58 it was 3.12 units/ml; with E. coli A 261, 400 units/ml; against E. coli C 165, 6.25 units/ml; in the test on Klebsiella 63, 12.5 units/ml and 25 units/ml; against Klebsiella K 10, 50 units/ml. Further, the MIC in test [1] is listed as 100 units/ml; with Proteus vulg. 1017, 12.5 units/ml; with Proteus vulg. 3400 it was 25 units/ml; with Psdm. aerug. Bonn, 12.5 units/ml; against Psdm. aerug. Walter it was 100 units/ml; in the test on Staph. aureus 133, under 0.78 units/ml.
On to `Cc1ccc(C(=O)N(C)C(=O)N[C@@H](C(=O)N[C@@H]2C(=O)N3[C@@H]2SC(C)(C)[C@@H]3C(=O)O)c2ccccc2)cc1[N+](=O)[O-]` [Example 70, Sodium D(-)-α-(3-[m-nitro-p-methyl]-benzoyl-3-methyl-ureido)-benzylpenicillin], for which the MIC against E. coli 14 stood at 3.12 units/ml; against E. coli 183/58, 3.12 units/ml; against E. coli A 261, 200 units/ml; in the test with E. coli C 165 it was 6.25 units/ml; in the test on Klebsiella 63, 12.5 units/ml; in the test on Klebsiella K 10 it was 25 units/ml. The MIC in test [1] was 100 units/ml; against Proteus vulg. 1017 it was 12.5 units/ml; against Proteus vulg. 3400, 12.5 units/ml; in the test with Psdm. aerug. Bonn it was 12.5 units/ml; in the test on Psdm. aerug. Walter it was 100 units/ml; against Staph. aureus 133 it was under 0.78 units/ml.
